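Exposure lasted 48 hours, with cells grown in 96-well plates and compounds tested at five concentrations. Here, GI50 denotes the concentration required for 50% inhibition of growth.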 Activity calls are given as the source filed them. Cut-off read from the data, not from the text of the source: active = GI50 up to about 1.1 µM and inactive = higher.
Assays:
Assay in all cases: NCI anticancer screen, dose series, 48 h
[1] = tested on: OVCAR-8
[2] = tested on: COLO 205
[3] = tested on: HOP-62
[4] = tested on: MOLT-4
[5] = tested on: SK-MEL-2
[6] = tested on: U-251
[7] = tested on: OVCAR-4
[8] = tested on: KM12
[9] = tested on: MCF7
[10] = tested on: NCI-H23
[11] = tested on: SR
[12] = tested on: NCI-H460
[13] = tested on: SNB-75
[14] = tested on: SF-295
[15] = tested on: T47D
[16] = tested on: BT-549
[17] = tested on: OVCAR-5
[18] = tested on: HCC 2998
[19] = tested on: DU-145
[20] = tested on: HL-60
[21] = tested on: M14
[22] = tested on: MDA-MB-231
[23] = tested on: UO-31
[24] = tested on: NCI/ADR-RES
[25] = tested on: A498
[26] = tested on: LOX IMVI
[27] = tested on: NCI-H522
[28] = tested on: PC-3
[29] = tested on: HCT-116
[30] = tested on: CCRF-CEM
[31] = tested on: Malme-3M
[32] = tested on: SW-620
[33] = tested on: ACHN
[34] = tested on: K562
[35] = tested on: SNB-19
[36] = tested on: UACC-257
[37] = tested on: SK-MEL-28
[38] = tested on: OVCAR-3
[39] = tested on: Hs-578T
[40] = tested on: SF-539
[41] = tested on: SF-268
[42] = tested on: EKVX
[43] = tested on: RPMI-8226
[44] = tested on: A549
[45] = tested on: HT-29
[46] = tested on: SN12C
[47] = tested on: NCI-H226
[48] = tested on: HOP-92
[49] = tested on: 786-0
[50] = tested on: HCT-15
[51] = tested on: SK-MEL-5
[52] = tested on: MDA-MB-435
[53] = tested on: RXF 393
[54] = tested on: IGROV-1
[55] = tested on: TK-10
[56] = tested on: UACC-62

What does the source list for O=[N+]([O-])C(=C(Nc1ccccc1)Nc1ccccc1)/C(Cl)=C(\Cl)Br?
GI50 [1]: 16.5 µM (inactive); GI50 [2]: > 10 µM (inactive); GI50 [3]: 22 µM (inactive); GI50 [4]: 3.1 µM (inactive); GI50 [5]: 18 µM (inactive); GI50 [6]: 15 µM (inactive); GI50 [7]: 11.9 µM (inactive); GI50 [8]: 12.3 µM (inactive); GI50 [9]: 12.5 µM (inactive); GI50 [10]: 12.1 µM (inactive); GI50 [11]: 5.01 µM (inactive); GI50 [12]: 21.3 µM (inactive); GI50 [13]: 12.4 µM (inactive); GI50 [14]: 14.8 µM (inactive); GI50 [15]: 12.7 µM (inactive); GI50 [16]: 21.7 µM (inactive); GI50 [17]: 10.6 µM (inactive); GI50 [18]: 17.1 µM (inactive); GI50 [19]: 16.5 µM (inactive); GI50 [20]: 1.76 µM (inactive); GI50 [21]: 4.89 µM (inactive); GI50 [22]: 15.6 µM (inactive); GI50 [23]: 10.1 µM (inactive); GI50 [24]: 9.48 µM (inactive); GI50 [25]: 19.1 µM (inactive); GI50 [26]: 3.27 µM (inactive); GI50 [27]: 2.51 µM (inactive); GI50 [28]: 15.6 µM (inactive); GI50 [29]: 6.05 µM (inactive); GI50 [30]: 2.15 µM (inactive); GI50 [31]: 16.5 µM (inactive); GI50 [32]: 6.82 µM (inactive); GI50 [33]: 11.4 µM (inactive); GI50 [34]: 2.92 µM (inactive); GI50 [35]: > 10 µM (inactive); GI50 [36]: 14.7 µM (inactive); GI50 [37]: 13.6 µM (inactive); GI50 [38]: 5.18 µM (inactive); GI50 [39]: 27 µM (inactive); GI50 [40]: 22 µM (inactive); GI50 [41]: 16.8 µM (inactive); GI50 [42]: 14.8 µM (inactive); GI50 [43]: 3.61 µM (inactive); GI50 [44]: 20.7 µM (inactive); GI50 [45]: 16.2 µM (inactive); GI50 [46]: 13.7 µM (inactive); GI50 [47]: 0.671 µM (active); GI50 [48]: 17.7 µM (inactive); GI50 [49]: 16.3 µM (inactive); GI50 [50]: 11.9 µM

With CCOC(=O)c1nc2ccc(C(F)(F)F)cc2nc1Nc1ccc(OC)cc1 as the compound, how does the GI50 [1] read?
The GI50 was > 100 µM (inactive).

What about the GI50 [2] of the same compound?
Its GI50 is > 100 µM (inactive).

What about the GI50 [3] of the same compound?
The GI50 was 24.3 µM (inactive).

And the GI50 [51]?
Its GI50 is 54.7 µM (inactive).

And the GI50 [4]?
Its GI50 is > 100 µM (inactive).

And the GI50 [5]?
Its GI50 is 71.9 µM (inactive).

What about the GI50 [6] of the same compound?
Its GI50 is 27.5 µM (inactive).

What about the GI50 [7] of the same compound?
Its GI50 is 18.6 µM (inactive).

And the GI50 [8]?
The GI50 was > 100 µM (inactive).

What about the GI50 [52] of the same compound?
The GI50 was > 100 µM (inactive).

What about the GI50 [9] of the same compound?
Its GI50 is > 100 µM (inactive).

And the GI50 [10]?
The GI50 was 49.1 µM (inactive).

And the GI50 [11]?
The GI50 was > 100 µM (inactive).

What about the GI50 [12] of the same compound?
The GI50 was 41.1 µM (inactive).

What about the GI50 [13] of the same compound?
Its GI50 is 93.5 µM (inactive).

What about the GI50 [14] of the same compound?
The GI50 was 26.9 µM (inactive).

And the GI50 [15]?
The GI50 was > 100 µM (inactive).

And the GI50 [16]?
The GI50 was 27.9 µM (inactive).

What about the GI50 [53] of the same compound?
Its GI50 is 22.1 µM (inactive).

What about the GI50 [17] of the same compound?
Its GI50 is > 100 µM (inactive).

What about the GI50 [18] of the same compound?
The GI50 was > 100 µM (inactive).

What about the GI50 [54] of the same compound?
Its GI50 is 36.6 µM (inactive).

What about the GI50 [55] of the same compound?
Its GI50 is > 100 µM (inactive).

What about the GI50 [19] of the same compound?
Its GI50 is > 100 µM (inactive).

What about the GI50 [20] of the same compound?
The GI50 was > 100 µM (inactive).

What about the GI50 [21] of the same compound?
The GI50 was 84.1 µM (inactive).

And the GI50 [22]?
Its GI50 is 17.7 µM (inactive).

What about the GI50 [23] of the same compound?
Its GI50 is > 100 µM (inactive).

What about the GI50 [24] of the same compound?
The GI50 was 63.2 µM (inactive).

And the GI50 [25]?
The GI50 was 44.8 µM (inactive).

What about the GI50 [26] of the same compound?
Its GI50 is > 100 µM (inactive).

And the GI50 [27]?
The GI50 was 36.5 µM (inactive).

And the GI50 [28]?
Its GI50 is 49.7 µM (inactive).

And the GI50 [29]?
The GI50 was 56.4 µM (inactive).

And the GI50 [56]?
The GI50 was 55.7 µM (inactive).

What about the GI50 [30] of the same compound?
The GI50 was > 100 µM (inactive).

What about the GI50 [31] of the same compound?
Its GI50 is > 100 µM (inactive).

And the GI50 [32]?
The GI50 was > 100 µM (inactive).

What about the GI50 [33] of the same compound?
Its GI50 is 55 µM (inactive).

What about the GI50 [34] of the same compound?
The GI50 was 68.2 µM (inactive).

What about the GI50 [35] of the same compound?
The GI50 was 33.6 µM (inactive).

What about the GI50 [36] of the same compound?
The GI50 was > 100 µM (inactive).

What about the GI50 [37] of the same compound?
The GI50 was > 100 µM (inactive).

And the GI50 [38]?
Its GI50 is 27.7 µM (inactive).

And the GI50 [39]?
The GI50 was 35.2 µM (inactive).

What about the GI50 [40] of the same compound?
The GI50 was 33 µM (inactive).

What about the GI50 [41] of the same compound?
The GI50 was 46.2 µM (inactive).

And the GI50 [42]?
Its GI50 is 98.9 µM (inactive).

And the GI50 [43]?
Its GI50 is > 100 µM (inactive).

And the GI50 [44]?
The GI50 was 50.1 µM (inactive).

What about the GI50 [45] of the same compound?
Its GI50 is > 100 µM (inactive).

What about the GI50 [47] of the same compound?
Its GI50 is 32.5 µM (inactive).

And the GI50 [48]?
Its GI50 is 12 µM (inactive).

What about the GI50 [49] of the same compound?
Its GI50 is 25.8 µM (inactive).

And the GI50 [50]?
The GI50 was greater than 100 µM.
